Measured values: PubChem BioAssay (NCI)
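Test compounds were applied to cells in 96-well plates for 48 hours at 5 doses. Definition used: TGI = concentration required for complete inhibition of growth.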

Columns and labels:
Assay in all cases: inhibition of tumour cell growth, NCI panel, 48 h
HS 578T breast = system: HS 578T breast
HOP-92 NSCLC = system: HOP-92 NSCLC
TK-10 renal = system: TK-10 renal
HOP-62 NSCLC = system: HOP-62 NSCLC
LOX IMVI melanoma = system: LOX IMVI melanoma
786-0 renal = system: 786-0 renal
K-562 leukemia = system: K-562 leukemia
EKVX NSCLC = system: EKVX NSCLC
SNB-75 CNS = system: SNB-75 CNS
MALME-3M melanoma = system: MALME-3M melanoma
UO-31 renal = system: UO-31 renal
A549 NSCLC = system: A549 NSCLC
CAKI-1 renal = system: CAKI-1 renal
HCC-2998 colon = system: HCC-2998 colon
SK-MEL-2 melanoma = system: SK-MEL-2 melanoma
NCI-H23 lung = system: NCI-H23 lung
SK-MEL-28 melanoma = system: SK-MEL-28 melanoma
SK-OV-3 ovarian = system: SK-OV-3 ovarian
SF-295 CNS = system: SF-295 CNS
CCRF-CEM leukemia = system: CCRF-CEM leukemia
NCI/ADR-RES ovarian = system: NCI/ADR-RES ovarian
HCT-15 colon = system: HCT-15 colon
MDA-MB-435 = system: MDA-MB-435
HCT-116 colon = system: HCT-116 colon
SR leukemia = system: SR leukemia
HT29 colon = system: HT29 colon
IGROV1 ovarian = system: IGROV1 ovarian
RPMI-8226 leukemia = system: RPMI-8226 leukemia
KM12 colon = system: KM12 colon
DU-145 prostate = system: DU-145 prostate
BT-549 breast = system: BT-549 breast
NCI-H460 lung = system: NCI-H460 lung
UACC-257 melanoma = system: UACC-257 melanoma
SK-MEL-5 melanoma = system: SK-MEL-5 melanoma
NCI-H226 lung = system: NCI-H226 lung
MDA-N = system: MDA-N
SF-268 CNS = system: SF-268 CNS
NCI-H522 lung = system: NCI-H522 lung
SF-539 CNS = system: SF-539 CNS
MDA-MB-231 breast = system: MDA-MB-231 breast
RXF 393 renal = system: RXF 393 renal
OVCAR-5 ovarian = system: OVCAR-5 ovarian
OVCAR-4 ovarian = system: OVCAR-4 ovarian
MOLT-4 leukemia = system: MOLT-4 leukemia
SN12C renal = system: SN12C renal
U251 CNS = system: U251 CNS
HL-60(TB) leukemia = system: HL-60(TB) leukemia
SW-620 colon = system: SW-620 colon
COLO 205 colon = system: COLO 205 colon
OVCAR-3 ovarian = system: OVCAR-3 ovarian
MCF7 breast = system: MCF7 breast
OVCAR-8 ovarian = system: OVCAR-8 ovarian
PC-3 prostate = system: PC-3 prostate
UACC-62 melanoma = system: UACC-62 melanoma
M14 melanoma = system: M14 melanoma
A498 renal = system: A498 renal
T-47D breast = system: T-47D breast
ACHN renal = system: ACHN renal

With CC[C@@]1(O)C(=O)OCc2c1cc1n(c2=O)Cc2c-1nc1ccc(O)cc1c2[Si](C)(C)C(C)(C)C the TGI (HS 578T breast) was > 57.9 µM, the TGI (HOP-92 NSCLC) was 2.31 µM and the TGI (TK-10 renal) was > 92.7 µM. The TGI (HOP-62 NSCLC) was 1.49 µM, the TGI (LOX IMVI melanoma) was 0.163 µM and the TGI (786-0 renal) was < 0.0255 µM. The TGI (K-562 leukemia) was > 94.5 µM, the TGI (EKVX NSCLC) was 15.8 µM and the TGI (SNB-75 CNS) was 0.0162 µM. It also gave a TGI (MALME-3M melanoma) of 0.179 µM, a TGI (UO-31 renal) of 0.0357 µM and a TGI (A549 NSCLC) of 1.19 µM. For the same compound, the TGI (CAKI-1 renal) was < 0.0137 µM, the TGI (HCC-2998 colon) was 0.401 µM and the TGI (SK-MEL-2 melanoma) was 0.786 µM. The TGI (NCI-H23 lung) was 0.0274 µM, the TGI (SK-MEL-28 melanoma) was 10.7 µM and the TGI (SK-OV-3 ovarian) was > 53 µM. The TGI (SF-295 CNS) was 1.32 µM, the TGI (CCRF-CEM leukemia) was < 0.01 µM and the TGI (NCI/ADR-RES ovarian) was 4.64 µM. It also gave a TGI (HCT-15 colon) of 8.81 µM, a TGI (MDA-MB-435) of 1.65 µM and a TGI (HCT-116 colon) of 0.147 µM. For the same compound, the TGI (SR leukemia) was < 0.0112 µM, the TGI (HT29 colon) was 4.39 µM and the TGI (IGROV1 ovarian) was 7.41 µM. For the same compound, the TGI (RPMI-8226 leukemia) was 4.77 µM, the TGI (KM12 colon) was 0.131 µM and the TGI (DU-145 prostate) was 0.0142 µM. The TGI (BT-549 breast) was 1.17 µM, the TGI (NCI-H460 lung) was 0.0263 µM and the TGI (UACC-257 melanoma) was 0.681 µM. It also gave a TGI (SK-MEL-5 melanoma) of 0.0387 µM, a TGI (NCI-H226 lung) of 0.015 µM and a TGI (MDA-N) of 4.63 µM. The TGI (SF-268 CNS) was 0.804 µM, the TGI (NCI-H522 lung) was 0.135 µM and the TGI (SF-539 CNS) was < 0.01 µM. For the same compound, the TGI (MDA-MB-231 breast) was 20.6 µM, the TGI (RXF 393 renal) was 0.0378 µM and the TGI (OVCAR-5 ovarian) was 2.58 µM. The TGI (OVCAR-4 ovarian) was 0.174 µM, the TGI (MOLT-4 leukemia) was 0.106 µM and the TGI (SN12C renal) was < 0.0233 µM. For the same compound, the TGI (U251 CNS) was 0.0192 µM, the TGI (HL-60(TB) leukemia) was < 0.01 µM and the TGI (SW-620 colon) was 10.9 µM. The TGI (COLO 205 colon) was 1.53 µM, the TGI (OVCAR-3 ovarian) was 0.0752 µM and the TGI (MCF7 breast) was > 41.2 µM. The TGI (OVCAR-8 ovarian) was > 42.3 µM, the TGI (PC-3 prostate) was 2.9 µM and the TGI (UACC-62 melanoma) was 0.164 µM. The TGI (M14 melanoma) was < 0.0114 µM.
For Clc1sc(Cl)c2c1[C@@H](Cl)C[C@@H]2Cl, the TGI (HS 578T breast) was > 100 µM, the TGI (HOP-92 NSCLC) was > 100 µM and the TGI (TK-10 renal) was > 100 µM. For the same compound, the TGI (HOP-62 NSCLC) was > 100 µM, the TGI (LOX IMVI melanoma) was > 100 µM and the TGI (786-0 renal) was > 100 µM. For the same compound, the TGI (K-562 leukemia) was > 100 µM, the TGI (EKVX NSCLC) was > 100 µM and the TGI (SNB-75 CNS) was > 100 µM. The TGI (MALME-3M melanoma) was > 100 µM, the TGI (UO-31 renal) was > 100 µM and the TGI (A498 renal) was > 100 µM. For the same compound, the TGI (T-47D breast) was > 100 µM, the TGI (A549 NSCLC) was > 100 µM and the TGI (CAKI-1 renal) was > 100 µM. For the same compound, the TGI (HCC-2998 colon) was > 100 µM, the TGI (SK-MEL-2 melanoma) was > 100 µM and the TGI (NCI-H23 lung) was > 100 µM. The TGI (SK-MEL-28 melanoma) was > 100 µM, the TGI (SK-OV-3 ovarian) was > 100 µM and the TGI (SF-295 CNS) was > 100 µM. The TGI (CCRF-CEM leukemia) was > 100 µM, the TGI (NCI/ADR-RES ovarian) was > 100 µM and the TGI (HCT-15 colon) was > 100 µM. For the same compound, the TGI (MDA-MB-435) was > 100 µM, the TGI (HCT-116 colon) was > 100 µM and the TGI (SR leukemia) was > 100 µM. For the same compound, the TGI (HT29 colon) was > 100 µM, the TGI (IGROV1 ovarian) was > 100 µM and the TGI (KM12 colon) was > 100 µM. The TGI (DU-145 prostate) was > 100 µM, the TGI (BT-549 breast) was > 100 µM and the TGI (NCI-H460 lung) was > 100 µM. For the same compound, the TGI (UACC-257 melanoma) was > 100 µM, the TGI (SK-MEL-5 melanoma) was > 100 µM and the TGI (NCI-H226 lung) was > 100 µM. For the same compound, the TGI (MDA-N) was > 100 µM, the TGI (SF-268 CNS) was > 100 µM and the TGI (NCI-H522 lung) was 58.2 µM. For the same compound, the TGI (SF-539 CNS) was > 100 µM, the TGI (MDA-MB-231 breast) was > 100 µM and the TGI (OVCAR-5 ovarian) was > 100 µM. The TGI (OVCAR-4 ovarian) was > 100 µM, the TGI (MOLT-4 leukemia) was > 100 µM and the TGI (SN12C renal) was > 100 µM. The TGI (U251 CNS) was > 100 µM, the TGI (SW-620 colon) was > 100 µM and the TGI (COLO 205 colon) was > 100 µM. For the same compound, the TGI (OVCAR-3 ovarian) was > 100 µM, the TGI (MCF7 breast) was > 100 µM and the TGI (OVCAR-8 ovarian) was > 100 µM. The TGI (ACHN renal) was > 100 µM, the TGI (UACC-62 melanoma) was > 100 µM and the TGI (M14 melanoma) was > 100 µM.
